Earlier results, collected in patent publication US20220265666A1, “METHODS OF TREATING SUBSTANCE ABUSE DISORDER, DYSPNEA, TINNITUS, AND CHILD AND ADOLESCENT DEPRESSION” (Praxis Precision Medicines, Inc., priority 2019, published 2022).
Where two headings read alike, the source gives them in different places.

Experiments:
[1] = system: patients with well controlled asthma
[2] = system: tinnitus behavior; conditions: non-clinical models of tinnitus
[3] = system: craving to cocaine; conditions: clinical studies
[4] = system: symptoms of tinnitus; conditions: clinical studies
[5] = second day, same patients, previous inhalation with diazepam
[6] = first day of testing, methacholine inhalation 6 mg/mL, no diazepam, 12 patients

With `CN1C(=O)CN=C(c2ccccc2)c2cc(Cl)ccc21` [diazepam] as the molecule, how does the “effect on bronchoconstriction induced by methacholine” value ([1]; diazepam aerosol, 12 patients with well controlled asthma) read?
Its value is “reduced the bronchoconstriction induced by methacholine”.

What about the “FEV1 after methacholine inhalation” value [1, 5] of the same molecule?
The value was 2.21 L.

And the “FEV1 before methacholine inhalation” value [1, 5]?
The value was 2.48 L.

For `C=CC(N)CCC(=O)O` (stereo not drawn) [vigabatrin], which “effect on tinnitus behavior” value [2] is on record?
The value was “reverse the tinnitus behavior”.

With `CC(=O)OC(C)C[N+](C)(C)C` (stereo not drawn) [methacholine] as the molecule, how does the “FEV1 after methacholine inhalation” value [1, 6] read?
Its value is 1.69 L.

And the “FEV1 before methacholine inhalation” value [1, 6]?
Its value is 2.98 L.

With `CNC1(c2ccccc2Cl)CCCCC1=O` (stereo not drawn) [ketamine] as the molecule, how does the “effect on tinnitus behavior” value [2] read?
Its value is “not those that reduce excitation (i.e., ketamine) reverse the tinnitus behavior”.

Which “effect on craving to cocaine” value [3] does the source give for `CC(=O)[C@H]1CC[C@H]2[C@@H]3CCC4=CC(=O)CC[C@]4(C)[C@H]3CC[C@]12C` [Progesterone] here?
The value was “decrease craving to cocaine”.

With `O=C1CN=C(c2ccccc2Cl)c2cc([N+](=O)[O-])ccc2N1` [clonazepam] as the molecule, how does the “effect on symptoms of tinnitus” value [4] read?
Its value is “control some symptoms of tinnitus”.
